Measurements taken from patent US20070270403A1 (priority 2003, published 2007).
Read-outs that look alike come from different tables or passages of the source.

What was measured:
[1] = system: DA release in NAcc; assay: In vivo microvoltammetry, DA release in NAcc (clozapine studies); set-up: species or system Sprague-Dawley Rattus Norvegicus; settings: ketanserin 3 mg/kg s.c. substituted for clozapine
Protocol: (§1) There is an increasing awareness that a psychosis, similar to that of schizophrenic psychosis, can be derived from cocaine addiction. […] Release mechanisms for monoamines, were determined by using a depolarization blocker, gamma-butyrolactone (γBL). […] Acute and Subacute studies were performed for each treatment group.
(§2) The stereotaxic equipment was purchased from David Kopf Instruments, Tujunga, Calif. A Ag/AgCl reference electrode was placed in contact with dura, 7 mm anteriorally and contralaterally to the indicator microelectrode. A stainless steel auxiliary microelectrode was placed in contact with dura. BRODERICK PROBE® microelectrodes were manufactured on site.
(§3) In vivo microvoltammetric studies on conscious Sprague-Dawley laboratory rats were begun nine to fifteen days after the aseptic surgical operations were performed. On each experimental day, the animal was placed in a Plexiglas-copper faradaic chamber. The three-microelectrode assembly, enclosed within the animal's prosthetic acrylic cap, was connected to a CV37 detector by means of a mercury commutator (Br. Res. Instr., Princeton, N.J.), a flexible cable, and a mating connector (BJM Electronics, Staten Island, N.Y.). The CV37 detector was electrically connected to a Minigard surge suppresser (Jefferson Electric, Magnetek, N.Y.) which was then connected to an electrical ground in isolation. […] Each animal was used as its own control. Changes in synaptic concentrations of DA and 5-HT are presented as percent change (% of control) in order to minimize normal between-animal variations. […] In vivo microvoltammetric scans were recorded in sec and repeated every five min for a period of 2 hrs before each treatment and a period of two hrs after each treatment.
(§4) Potentials were applied with a CV37 detector (BAS, West Lafayette, Ind.). Potentials were applied from −0.2V to +0.4V with respect to a Ag/AgCl (1M NaCl) electrode, at a scan rate of 10 mV/sec at time constants of 5 and 1 tau. One scan was completed in 60 sec. Non-faradaic charging current was eliminated in the first 25 sec.
(§5) Calibration curves were determined experimentally, in vitro, in a freshly prepared deoxygenated physiological saline-phosphate buffer solution (0.01 M, pH=7.4). We use ultra pure Nitrogen (N2) (T. W. Smith Corp., Bklyn, N.Y.) to deoxygenate the buffer solution. […] Calibration studies were also performed in freshly prepared deoxygenated buffer solutions containing phosphotidylethanolamine (PEA), combined with bovine serum albumin (BSA) (Sigma Aldrich, St. Louis, Mo.), a solution which closely mimics brain constituents. […] Detection limits for basal synaptic concentrations of DA and 5-HT in NAcc were 12 nM and 2 nM respectively.

[2] = system: 5-HT release in NAcc; assay: In vivo microvoltammetry, 5-HT release in NAcc (clozapine studies); set-up: species or system Sprague-Dawley Rattus Norvegicus; settings: ketanserin 3 mg/kg s.c. substituted for clozapine
Protocol: as §1, §2, §3, §4, §5

[3] = system: Sprague-Dawley laboratory rats; assay: Locomotor activity (ambulations) by infrared photobeams (clozapine studies); assay type: in vivo, Sprague-Dawley Rattus Norvegicus; settings: ketanserin 3 mg/kg s.c. substituted for clozapine
Description: Locomotor activity (ambulation) was monitored with infrared photobeams at the same time as DA and 5-HT release in NAcc was detected with BRODERICK PROBES® in conjunction with In Vivo Microvoltammetry. The chamber was faradaic, covered with copper to refract possible electrical artifacts (dimensions: 24 in (width) by 18 in (depth) by 23.5 in (height)). A 16 by 16 array of these infrared photobeams, were held in place by an aluminum frame which was situated ¾ in above the Plexiglas floor of the chamber to detect locomotor activity. Photobeams were sampled by a Pentium computer to define the x-y position of the animal within a 1.5 in resolution every 100 msec. When an x-y position was calculated, it was used to define the frequency of locomotor activity in counts. The locomotor activity system is a modified version of an Activity Pattern Monitor (APM) (San Diego Instruments, San Diego, Calif.). Behavioral data is presented in absolute frequency, i.e., number of counts recorded.
The first hr pre-drug allowed exploratory behavior. Exploratory behavior is defined as open-field behavior of ambulations (forward locomotion) wherein animals respond to the stimuli of a novel environment with high frequency of behavioral counts. The second hr pre-drug allowed the animal to become habituated before treatment.
In the Acute studies, each drug was administered at the end of the habituation period. Baseline (control) values were taken every five min for the last thirty min of the habituation period at which time drug injection(s) took place. Electrochemical recordings for DA and 5-HT release in NAcc, were continued for two hrs; at the same time, locomotor behavior continued to be monitored and recorded with infrared photobeams. At the end of the 2 hr drug(s) study, animals were then placed back in their home cages.
In the Subacute studies, which took place twenty-four hrs later, the animals were again placed in the faradaic behavioral chamber and no further drug was administered. Recordings of separate electrochemical signals for DA and 5-HT release in NAcc, were taken for one hr; at the same time, locomotor behavior was monitored and recorded with infrared photobeams.
(§6) Neurochemical and behavioral data, derived from the last thirty minutes of the habituation period, provided the baseline data. […] Where appropriate, data points in the time course were subjected to 95% Confidence Limits (C.L.).

[4] = target: 5-HT2A receptors (Homo sapiens, UniProt P28223); settings: cited from earlier work
5-HT2A receptors, sequence (P28223 whole entry): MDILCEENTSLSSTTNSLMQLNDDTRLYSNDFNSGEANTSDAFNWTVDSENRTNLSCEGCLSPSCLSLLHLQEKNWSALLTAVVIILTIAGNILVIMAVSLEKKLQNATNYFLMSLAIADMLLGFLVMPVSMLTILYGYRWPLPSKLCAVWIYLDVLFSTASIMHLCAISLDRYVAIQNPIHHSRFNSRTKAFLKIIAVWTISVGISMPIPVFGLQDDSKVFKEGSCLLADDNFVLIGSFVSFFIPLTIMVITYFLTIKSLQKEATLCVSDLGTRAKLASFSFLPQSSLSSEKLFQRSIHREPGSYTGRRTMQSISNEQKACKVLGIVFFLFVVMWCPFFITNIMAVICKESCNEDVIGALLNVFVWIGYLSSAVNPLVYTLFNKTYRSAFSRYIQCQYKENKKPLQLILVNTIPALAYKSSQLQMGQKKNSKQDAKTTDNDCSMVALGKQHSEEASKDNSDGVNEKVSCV

[5] = target: DA2 receptors (Homo sapiens, UniProt P14416); settings: ketanserin: DA receptors; cited from earlier work
DA2 receptors, sequence (P14416 whole entry): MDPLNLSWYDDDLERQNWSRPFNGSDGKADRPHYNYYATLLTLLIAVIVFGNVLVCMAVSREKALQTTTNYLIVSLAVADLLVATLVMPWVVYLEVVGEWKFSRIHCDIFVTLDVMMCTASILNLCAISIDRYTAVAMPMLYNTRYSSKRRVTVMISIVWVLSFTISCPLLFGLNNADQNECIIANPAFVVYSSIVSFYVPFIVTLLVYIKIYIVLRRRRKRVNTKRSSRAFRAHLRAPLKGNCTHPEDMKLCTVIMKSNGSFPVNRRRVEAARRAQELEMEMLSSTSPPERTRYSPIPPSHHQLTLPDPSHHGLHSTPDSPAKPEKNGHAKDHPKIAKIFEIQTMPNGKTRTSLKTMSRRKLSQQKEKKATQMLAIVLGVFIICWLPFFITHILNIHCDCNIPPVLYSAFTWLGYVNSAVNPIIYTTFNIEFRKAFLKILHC

[6] = system: DA release in NAcc; assay: In vivo microvoltammetry, DA release in NAcc (risperidone studies); set-up: species or system Sprague-Dawley Rattus Norvegicus
Protocol: (§7) In vivo microvoltammetry was used to detect dopamine (DA) and serotonin (5-HT) release from Nucleus Accumbens (NAcc) of freely moving, male, Sprague Dawley laboratory rats, while animals' locomotor (forward ambulations) and stereotypic behavior (fine movements of sniffing and grooming) were monitored at the same time with infrared photobeams. Monoamine release mechanisms were determined by using a depolarization blocker, gamma-butyrolactone (γBL). Miniature carbon sensors, BRODERICK PROBE® Lauric Acid Microelectrodes, smaller than a human hair, were used in conjunction with a semidifferential electrochemical circuit, to detect release of each monoamine in separate signals and within seconds. […] The hypothesis for the present studies is derived from a growing body of evidence that cocaine-induced psychosis and schizophrenic psychosis share similar neurochemical and behavioral manifestations.
(§8) Animals were purchased from Charles River Laboratories, Kingston, N.Y. and were housed in our animal care facilities for two weeks before surgery was performed. The Animal Care Facility operates under the auspices of the CUNY, City College Institutional Animal Care and Use Committee (IACUC) in compliance with National Institute of Health (NIH) guidelines. The weight range for the animals, at the time of the studies, was 350-475 g. Animals were group housed before surgery, individually housed after surgery and fed Purina Rat Chow and water ad libitum. A twelve hr dark-light cycle was maintained both in the housing of the animals and throughout the experimental studies. […] A Ag/AgCl reference electrode was placed in contact with dura, 7 mm anteriorally and contralaterally to the indicator microelectrode. A stainless steel auxiliary microelectrode, was placed in contact with dura.
In vivo microvoltammetric studies on conscious Sprague-Dawley laboratory rats were begun nine to fifteen days after the aseptic surgical operations were performed. On each experimental day, animals were placed in a Plexiglas-copper faradaic chamber. The three-microelectrode assembly, enclosed within the animal's prosthetic acrylic cap, was connected to a CV37 detector by means of a mercury commutator (Br. Res. Instr., Princeton, N.J.), a flexible cable, and a mating connector (BJM Electronics, Staten Island, N.Y.). […] In vivo microvoltammetric scans were recorded in sec and repeated every five min for a period of 2 hrs before each treatment and a period of two hrs after each treatment.
The first hr pre-drug, allowed exploratory behavior. […] Each animal was monitored for possible recovery, withdrawal or after-effects. of each treatment WHILE open-field behaviors of locomotions and stereotypy were monitored with computerized infrared photocell beams which surround the faradaic chamber.

[7] = system: 5-HT release in NAcc; assay: In vivo microvoltammetry, 5-HT release in NAcc (risperidone studies); set-up: species or system Sprague-Dawley Rattus Norvegicus
Protocol: as §7, §8
In vivo microvoltammetric studies on conscious Sprague-Dawley laboratory rats were begun nine to fifteen days after the aseptic surgical operations were performed. On each experimental day, animals were placed in a Plexiglas-copper faradaic chamber. The three-microelectrode assembly, enclosed within the animal's prosthetic acrylic cap, was connected to a CV37 detector by means of a mercury commutator (Br. Res. Instr., Princeton, N.J.), a flexible cable, and a mating connector (BJM Electronics, Staten Island, N.Y.). The CV37 detector was electrically connected to a Minigard surge suppresser (Jefferson Electric, Magnetek, N.Y.) which was then connected to an electrical ground in isolation. […] Each animal was used as its own control. In vivo microvoltammetric scans were recorded in sec and repeated every five min for a period of 2 hrs before each treatment and a period of two hrs after each treatment.
(§9) The first hr pre-drug, allowed exploratory behavior. Exploratory behavior is defined as open-field behavior of ambulations (forward locomotion) and stereotypy (fine movements of sniffing and grooming), wherein animals respond to the stimuli of a novel environment with a high frequency of behavioral counts. The second hr pre-drug allowed the animal to become habituated before treatment. […] In the acute studies, each drug was administered […]. For the subacute studies, twenty four hrs later, the animals were again placed in the faradaic behavioral chamber and no further drug was administered. Each animal was monitored for possible recovery, withdrawal or after-effects. of each treatment WHILE open-field behaviors of locomotions and stereotypy were monitored with computerized infrared photocell beams which surround the faradaic chamber.

[8] = system: Sprague-Dawley laboratory rats; assay: Locomotion (ambulations) by infrared photobeams (risperidone studies); assay type: in vivo, Sprague-Dawley Rattus Norvegicus
Protocol: (§10) Behaviors were monitored with infrared photobeams which surrounded the faradaic chamber. Open-field behaviors of locomotion (ambulations) and stereotypy (fine movements of sniffing and grooming) were recorded in sec and repeated every five min for a period of 2 hrs before each treatment and a period of 2 hrs after each treatment. Open-field behaviors were monitored simultaneously with in vivo microvoltammetric recordings of monoamines.
as §9
(§11) The faradaic chamber was made of plexiglas and covered with copper wire to refract possible electrical artifacts (dimensions: 24 inch (width) by 18 inch (depth) by 23.5 inch (height)). A 16 by 16 array of infrared photobeams, held in place by an aluminum frame, was situated ¾ inch above the Plexiglas floor of the chamber to detect locomotor and stereotypic movements. Photobeams were sampled by a Pentium computer to define the x-y position of the animal within a 1.5 inch resolution every 100 msec. When an x-y position was calculated, it was used to define a particular behavioral parameter. This system is a modified version of an Activity Pattern Monitor (APM) (San Diego Instruments, San Diego, Calif.). Behavioral data is presented in terms of Frequency of Events.
as §6

[9] = system: Sprague-Dawley laboratory rats; assay: Stereotypy (fine movements of sniffing and grooming) by infrared photobeams (risperidone studies); assay type: in vivo, Sprague-Dawley Rattus Norvegicus
Protocol: as §10, §9, §11, §6

[10] = humans, cited from earlier work
[11] = target: T1, DA2 receptor (Rattus norvegicus, UniProt P61169); settings: cited from earlier work
T1 construct: host or cells: brain (nucleus accumbens) of dosed animals
T1 sequence (P61169 whole entry): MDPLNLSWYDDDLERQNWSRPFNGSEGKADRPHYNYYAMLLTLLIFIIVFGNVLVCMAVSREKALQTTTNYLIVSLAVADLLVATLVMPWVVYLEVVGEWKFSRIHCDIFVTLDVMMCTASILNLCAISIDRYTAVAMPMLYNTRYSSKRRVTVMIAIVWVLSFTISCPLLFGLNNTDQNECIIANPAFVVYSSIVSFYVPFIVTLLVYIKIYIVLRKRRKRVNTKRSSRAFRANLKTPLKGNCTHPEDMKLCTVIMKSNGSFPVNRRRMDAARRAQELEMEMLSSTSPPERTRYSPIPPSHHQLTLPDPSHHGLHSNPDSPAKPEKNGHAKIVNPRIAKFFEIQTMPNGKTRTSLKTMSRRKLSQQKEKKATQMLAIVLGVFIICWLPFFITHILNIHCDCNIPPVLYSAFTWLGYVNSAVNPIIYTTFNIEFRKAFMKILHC

[12] = system: 5-hydroxyindoleacetic acid (5-HIAA) in NAcc; settings: risperidone 0.2 mg/kg s.c. and 2.0 mg/kg s.c., time-dependent; cited from earlier work
[13] = risperidone 2 mg/kg s.c. + cocaine 10 mg/kg i.p., versus cocaine group
[14] = risperidone 2 mg/kg s.c. + cocaine 10 mg/kg i.p., entire 2 hr period
[15] = risperidone 2 mg/kg s.c., cocaine 10 mg/kg i.p. or both, 2 hr
[16] = 24 hr after risperidone 2 mg/kg s.c.
[17] = 24 hr after single dose, no further drug

O=C(c1ccc(F)cc1)C1CCN(CCn2c(=O)[nH]c3ccccc3c2=O)CC1 [ketanserin]
Blockade of cocaine-induced DA release, Acute, compared with clozapine [1]: weaker than that of clozapine
Blockade of cocaine-induced 5-HT release, Acute, compared with clozapine [2]: weaker than that of clozapine
Blockade of cocaine-induced psychomotor stimulant behavior, Acute, compared with clozapine [3]: weaker than that of clozapine
Affinity for 5-HT2A receptors [4]: high affinity
Affinity for DA2 receptors [5]: does not bind

Cc1nc2n(c(=O)c1CCN1CCC(c3noc4cc(F)ccc34)CC1)CCCC2 [Risperidone, risperidone]
DA release in NAcc Day 2 versus Day 1 baseline, Subacute ([6]; 24 hr after single dose (risperidone 2 mg/kg s.c., cocaine 10 mg/kg i.p. or both), no further drug): returned to baseline
DA release in NAcc versus baseline (habituation), Day 1 Acute ([6]; risperidone 2 mg/kg s.c. (N=5) or cocaine 10 mg/kg i.p. (N=4), 2 hr): significantly increased
Effect on cocaine-induced DA release, Acute, first hr [6, 13]: significant blockade
Effect on cocaine-induced DA release, Acute, second hr [6, 13]: did not completely block
5-HT release in NAcc Day 2 versus Day 1 baseline, Subacute ([7]; 24 hr after single dose, no further drug, 1 hr, cocaine: 15, 20, 50, 55 min time points): significantly increased
Increase in 5-HT release in NAcc during the time course (up to) ([7]; Acute, risperidone 2 mg/kg s.c.): about 60%
Further increase in 5-HT release on Day 2 compared to drug effect on Day 1 (approximate average) ([7]; Subacute, risperidone 2 mg/kg s.c. on Day 1): ~25%
Effect on cocaine-induced 5-HT release, Acute [7, 14]: blocked
5-HT release in NAcc versus baseline (habituation), Day 1 Acute [7, 15]: significantly increased
Locomotor activity frequency, Day 2 (Subacute) [8, 16]: about 200 counts
Locomotion Day 2 versus Day 1 baseline, Subacute [8, 17]: did not affect locomotion to a statistically significant degree
Locomotor activity frequency with drug treatment, Day1 ([8]; risperidone 2 mg/kg s.c.): 50 counts
Effect on cocaine-induced locomotor (psychostimulant) activity, Acute [8, 14]: blocked
Locomotor activity (ambulations) versus baseline (habituation), Day 1 Acute [8, 15]: did not affect
Stereotypy maximum frequency, Day 2 (Subacute) [9, 16]: about 50 counts
Stereotypy Day 2 versus Day 1 baseline, Subacute [9, 17]: increased stereotypy to a statistically significant degree
Stereotypy maximum frequency with drug treatment, Day 1 ([9]; risperidone 2 mg/kg s.c.): 12 counts
Effect on cocaine-induced stereotypic activity, Acute [9, 14]: blocked
Stereotypy versus baseline (habituation), Day 1 Acute [9, 15]: did not affect
half-life ([10]; fast metabolizers): 3 h
half-life ([10]; slow metabolizers): 20 h
ED50 of DA2 receptor occupancy ([11]; NAcc, [3H] spiperone labeling studies): 1.0 mg/kg
DA2 receptor occupancy ([11]; high dose risperidone): 70%
Affinity for DA2 receptors [5]: high affinity
Increase in 5-HIAA concentrations above baseline (up to) [12]: up to 20%
